Data on 1 compound can be found in ChEMBL document CHEMBL5316326, “Discovery of a Novel Covalent EZH2 Inhibitor Based on Tazemetostat Scaffold for the Treatment of Ovarian Cancer” (J Med Chem, 2023).

Data set [1] can be described thus: Oral bioavailability in Sprague-Dawley rat at 100 mg/kg and measured upto 24 hrs by LC-MS/MS analysis. It counts as ADME, organism-based. The settings on record: in vivo.
The subject of data set [2] is PA-1. Put plainly: Antitumor activity against human PA-1 cells xenografted in BALB/C nude mouse assessed as tumor growth inhibition at 75 mg/kg,po BID for 21 days. It counts as functional. The settings on record: PA-1, 504 h, time 21 day, read-out: TGI.
A short description of data set [3]: Tmax in Sprague-Dawley rat at 100 mg/kg, po and measured upto 24 hrs by LC-MS/MS analysis. It counts as ADME, organism-based. Conditions: in vivo.
In data set [4] the test system is PA-1. The data set can be described thus: Induction of apoptosis in human PA-1 cells assessed as viable cells at 40 uM incubated for 48 hrs by AnnexinV-FITC/PI staining based flow cytometry analysis (Rvb= 88.53%). It counts as functional. Conditions: read-out: Activity. A general note: In flow cytometry, cells or beads pass a laser one at a time.
Data set [5] is described as follows: AUCt in Sprague-Dawley rat at 5 mg/kg, iv and measured upto 24 hrs by LC-MS/MS analysis. It counts as ADME, organism-based. Details: time < 24 hrs, dose 5 mg/kg, route iv. The settings on record: in vivo.
A short description of data set [6]: MRT(t) in Sprague-Dawley rat at 100 mg/kg, po and measured upto 24 hrs by LC-MS/MS analysis. It counts as ADME, organism-based. Conditions: in vivo.
The test system of data set [7] is PA-1. The data set can be described thus: Antiproliferative activity against human PA-1 cells assessed as reduction in cell viability at 10 uM incubated for 3 days followed by compound washout and measured after 4 days by microscopy analysis. It counts as functional, cell-based. The settings on record: time 3.0 day.
The nature of data set [8]: Toxicity in BALB/C nude mouse xenografted with human PA-1 cells assessed as pathological changes in heart at 75 to 150 mg/kg,po BID for 21 days by H&E staining based microscopic analysis. It counts as organism-based. The settings on record: in vivo, 504 h, dose 75-150 mg/kg, time 21 day. Background: In xenograft studies the graft and the host belong to different species.

Data set [9] has as its system OAW-42. The data set can be described thus: Antiproliferative activity against human OAW-42 cells assessed as inhibition of cell proliferation incubated for 72 hrs by MTT assay. It counts as functional, cell-based. The settings on record: OAW-42, 72 h. On the technique in general: Tetrazolium dyes change colour on reduction, which living cells bring about.
Data set [10] is described as follows: Half life in Sprague-Dawley rat at 100 mg/kg, po and measured upto 24 hrs by LC-MS/MS analysis. It counts as ADME, organism-based. Conditions: in vivo.
Data set [11] is described as follows: Antiproliferative activity against human COV362 cells assessed as inhibition of cell proliferation incubated for 72 hrs by MTT assay. It counts as functional, cell-based. The settings on record: COV362, 72 h.
Data set [12] concerns the target Histone-lysine N-methyltransferase EZH2 (Homo sapiens, UniProt Q15910). The data set can be described thus: Covalent inhibition of EZH2 (unknown origin) assessed as slow change in dissociation rate preincubated for 60 mins followed by substrate addition and measured upto 90 mins using Mix-GL11 and 3H-SAM as substrate by spin column method. The settings on record: time > 150.0 min.

A short description of data set [13]: Toxicity in BALB/C nude mouse xenografted with human PA-1 cells assessed as pathological changes in hematological parameters at 75 to 150 mg/kg,po BID for 21 days. It counts as organism-based. Conditions: in vivo, 504 h, dose 75-150 mg/kg, time 21 day.
Data set [14] concerns PA-1. The data set can be described thus: Antiproliferative activity against human PA-1 cells assessed as inhibition of cell proliferation incubated for 3 to 5 days by MTT assay. It counts as functional, cell-based. Conditions: time 3-5 day, TDE = time-dependent effect.
In data set [15] the test system is Mus musculus. The data set can be described thus: In vivo inhibition of EZH2 in human PA-1 cells xenografted in BALB/C nude mouse assessed as reduction in H3K27me3 expression level at 75 to 150 mg/kg,po BID for 21 days by immunohistochemical analysis. It counts as functional, organism-based. Conditions: dose 75-150 mg/kg, time 21.0 day.

Structures are written as SMILES. pIC50: −log10 of the molar value. Active and inactive are the calls of the source.

Histone-lysine N-methyltransferase EZH2, sequence (Q15910 whole entry, looked up): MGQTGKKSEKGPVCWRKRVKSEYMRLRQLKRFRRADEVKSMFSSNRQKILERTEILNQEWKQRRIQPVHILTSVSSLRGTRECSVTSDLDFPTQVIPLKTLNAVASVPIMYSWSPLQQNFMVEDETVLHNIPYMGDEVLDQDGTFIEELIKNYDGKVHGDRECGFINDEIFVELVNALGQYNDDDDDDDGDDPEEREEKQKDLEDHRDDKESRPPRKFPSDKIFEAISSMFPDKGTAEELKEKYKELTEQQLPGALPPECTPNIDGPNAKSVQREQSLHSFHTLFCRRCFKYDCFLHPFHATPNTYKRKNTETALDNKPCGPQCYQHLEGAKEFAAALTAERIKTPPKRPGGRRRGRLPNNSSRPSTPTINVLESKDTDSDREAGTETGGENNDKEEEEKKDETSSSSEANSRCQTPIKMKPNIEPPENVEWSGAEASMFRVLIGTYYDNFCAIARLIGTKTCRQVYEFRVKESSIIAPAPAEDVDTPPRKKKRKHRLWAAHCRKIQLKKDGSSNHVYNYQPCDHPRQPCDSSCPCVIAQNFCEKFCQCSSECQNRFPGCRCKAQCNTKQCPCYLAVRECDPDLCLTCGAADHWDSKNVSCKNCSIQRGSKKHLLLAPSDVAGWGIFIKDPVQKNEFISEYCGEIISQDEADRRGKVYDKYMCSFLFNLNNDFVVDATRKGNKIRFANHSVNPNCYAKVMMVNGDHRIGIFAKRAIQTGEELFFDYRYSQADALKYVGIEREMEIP

With `C=CC(=O)Nc1ccc(C)c(-c2cc(C(=O)NCc3c(C)cc(C)[nH]c3=O)c(C)c(N(CC)C3CCOCC3)c2)c1`, the bioavailability (in general, the share of a dose that reaches the circulation, judged against a reference dose that is usually intravenous) in data set [1] was determined as 8.73%. Besides, the inhibition in vivo at 75 mg/kg in [2] amounted to 45.3%. Also, the time of peak concentration (Tmax) (commonly the time from dosing to the highest level) in data set [3] is 22.8 min. Also, the viability at 40 µM in [4] stood at 10.3%. This compound also returned an AUCt in [5] of 7225.47 ng·h/mL. The MRT last (in general, a mean duration of stay, worked out from the concentration-time curve) at 24 h in data set [6] was found to be 104 min. Also, the result in data set [7] was Active. Besides, the Activity entry in data set [8] is “Non-Toxic”; in [13] it was “Non-Toxic”; in data set [14], “Tde”. For the same compound, the pIC50 in data set [9] and in data set [11] was below 4.00 each time. The half-life (as a rule, the time needed for the level to fall by half in the phase considered) in data set [10] was 46.2 min. Also, the inhibition result in data set [12] and in data set [15] was “Active” each time.
